Earlier results in US9861647B2 (Prelief Inc., priority 2007, dated 2018).
Where two headings read alike, the source gives them in different places.

Test system: ragweed sensitized Beagle dogs
Details: Rudolph et al., 2003, cited from earlier work

Compound | RW-induced nasal congestion (chlorpheniramine 10 mg/kg) | RW-induced nasal congestion (pseudoephedrine 3 mg/kg)
CN(C)CCC(c1ccc(Cl)cc1)c1ccccn1 (centres unmarked) [chlorpheniramine] | can prevent the development of RW-induced nasal congestion | 
CN[C@@H](C)[C@@H](O)c1ccccc1 [pseudoephedrine] |  | can prevent the development of RW-induced nasal congestion
